What was measured:
[1] = molecular target: JAK1 (recombinant purified GST-tagged catalytic domain) (Homo sapiens (Human), UniProt P23458); assay: biochemical;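 further: biochemical assay with HTRF read-out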
[2] = molecular target: JAK2 (recombinant purified GST-tagged catalytic domain) (Homo sapiens (Human), UniProt O60674); assay: biochemical;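 further: biochemical JAK kinase assay with HTRF detection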
Sequence of JAK2 (recombinant purified GST-tagged catalytic domain) (O60674 849-1124): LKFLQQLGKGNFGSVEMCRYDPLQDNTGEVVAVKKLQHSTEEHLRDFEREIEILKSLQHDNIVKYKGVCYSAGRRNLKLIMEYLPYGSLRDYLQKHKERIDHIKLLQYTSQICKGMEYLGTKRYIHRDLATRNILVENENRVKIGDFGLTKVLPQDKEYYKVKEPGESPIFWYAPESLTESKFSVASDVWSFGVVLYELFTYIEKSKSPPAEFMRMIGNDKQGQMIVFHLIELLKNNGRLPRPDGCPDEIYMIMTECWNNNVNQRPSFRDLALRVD

Sequence of JAK1 (recombinant purified GST-tagged catalytic domain) (P23458 875-1153): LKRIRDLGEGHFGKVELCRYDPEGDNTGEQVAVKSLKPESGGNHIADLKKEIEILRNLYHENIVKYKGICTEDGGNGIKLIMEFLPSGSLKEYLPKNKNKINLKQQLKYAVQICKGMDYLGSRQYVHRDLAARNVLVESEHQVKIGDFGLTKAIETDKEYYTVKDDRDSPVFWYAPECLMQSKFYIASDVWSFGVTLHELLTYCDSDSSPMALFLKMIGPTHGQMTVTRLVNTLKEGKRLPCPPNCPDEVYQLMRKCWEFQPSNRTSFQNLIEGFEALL

Row | SMILES | IC50 [1] | IC50 [2]
1 | N#Cc1ccc(Nc2nn([C@H]3CC[C@@H](O)C[C@@H]3C#N)cc2C(N)=O)cc1 (single isomer, unassigned) [Example 25-4, 1-[(1S,2S,4R or 1R,2R,4S)-2-cyano-4-hydroxycyclohexyl]-3-[(4-cyanophenyl)amino]-1H-pyrazole-4-carboxamide] | 0.55 nM | 3 nM
2 | CC(=O)O[C@H]1C[C@H](C#N)[C@@H](n2cc(C(N)=O)c(Nc3ccc(C(F)(F)F)cc3)n2)C[C@@H]1O [Example 41] | 20 nM | 184 nM
3 | N#C[C@H]1CCCC[C@@H]1n1cc(C(N)=O)c(Nc2ccc(S(=O)(=O)Nc3ccc(C(F)(F)F)cc3)cc2)n1 (single isomer, unassigned) [Example 17-95, 1-[(1R,2R or 1S,2S)-2-cyanocyclohexyl]-3-[(4-{[4-(trifluoromethyl)phenyl]sulfamoyl}phenyl)amino]-1H-pyrazole-4-carboxamide] | 6 nM | 31 nM
4 | N#C[C@H]1CC[C@@H](O)CC1n1cc(C(N)=O)c(Nc2ccccc2)n1 (mixture of isomers) [Example 2-13, 1-[(1S,2S,5R and 1R,2R,5S)-2-cyano-5-hydroxycyclohexyl]-3-(phenylamino)-1H-pyrazole-4-carboxamide] | 27 nM | 185 nM
5 | Cc1noc(-c2ccc(Nc3nn([C@H]4CCCC[C@@H]4C#N)cc3C(N)=O)cc2)n1 (racemic) [Example 17-6, 1-[(1S,2S and 1R,2S)-2-cyanocyclohexyl]-3-{[4-(3-methyl-1,2,4-oxadiazol-5-yl)phenyl]amino}-1H-pyrazole-4-carboxamide] | 4 nM | 25 nM
6 | N#C[C@H]1CCCC(F)[C@@H]1n1cc(C(N)=O)c(Nc2ccccc2)n1 (mixture of isomers) [Example 23-1, 1-[(1R,2S and 1S,2R)-2-Cyano-6-fluorocyclohexyl]-3-(phenylamino)-1H-pyrazole-4-carboxamide] | 5 nM | 60 nM
7 | N#Cc1ccc(Nc2nn([C@H]3CCCC[C@H]3C#N)cc2C(N)=O)cc1 (racemic) [Example 17-16, 1-[(1S,2R and 1R,2S)-2-cyanocyclohexyl]-3-[(4-cyanophenyl)amino]-1H-pyrazole-4-carboxamide] | 11 nM | 36 nM
8 | N#C[C@H]1CCCC[C@@H]1n1cc(C(N)=O)c(Nc2ccc(Cl)c(Cl)c2)n1 (single isomer, unassigned) [Example 17-49, 1-[(1S,2S or 1R,2R)-2-cyanocyclohexyl]-3-[(3,4-dichlorophenyl)amino]-1H-pyrazole-4-carboxamide] | 17 nM | 93 nM
9 | N#C[C@H]1C[C@H](O)CC[C@@H]1n1cc(C(N)=O)c(Nc2ccc([C@@H](O)C(F)(F)F)cc2)n1 (single isomer, unassigned) [Example 25-15, 1-[(1S,2S,4R or 1R,2R,4S)-2-cyano-4-hydroxycyclohexyl]-3-({4-[(1R or 1S)-2,2,2-trifluoro-1-hydroxyethyl]phenyl}amino)-1H-pyrazole-4-carboxamide] | 0.3 nM | 3 nM

The remaining lines, values ahead:

Row | IC50 [1] | IC50 [2] | SMILES
10 | 2 nM | 42 nM | CC(C)(O)CN[C@H]1CCC(n2cc(C(N)=O)c(Nc3ccc(Cl)cc3)n2)[C@@H](C#N)C1 (single isomer, unassigned) [Example 28-221, 3-[(4-chlorophenyl)amino]-1-{(1S,2S,4S or 1R,2R,4R)-2-cyano-4-[(2-hydroxy-2-methylpropyl)amino]cyclo-hexyl}-1H-pyrazole-4-carboxamide]
11 | 0.7 nM | 4 nM | N#C[C@H]1C[C@H](NC2COC2)CC[C@@H]1n1cc(C(N)=O)c(Nc2ccc(CC(F)(F)F)cc2)n1 (single isomer, unassigned) [Example 28-77, 1-[(1S,2S,4R or 1R,2R,4S)-2-cyano-4-(oxetan-3-ylamino)cyclohexyl]-3-{[4-(2,2,2-trifluoroethyl)phenyl]amino}-1H-pyrazole-4-carboxamide]
12 | 0.4 nM | 10 nM | N#C[C@H]1CC(NCC2CCS(=O)(=O)C2)CC[C@@H]1n1cc(C(N)=O)c(Nc2ccc(S(=O)(=O)C(F)(F)F)cc2)n1 (single isomer, unassigned) [Example 28-152, 1-[(1S,2S or 1R,2R)-2-cyano-4-{[(1,1-dioxidotetrahydrothiophen-3-yl)methyl]amino}cyclohexyl]-3-({4-[(trifluoro-methyl)sulfonyl]phenyl}amino)-1H-pyrazole-4-carboxamide]
13 | 177 nM | 375 nM | N#C[C@H]1C[C@H](N[C@@H](C2CC2)C(F)(F)F)CC[C@@H]1n1cc(C(N)=O)c(Nc2ccc(C(F)(F)F)cc2)n1 (single isomer, unassigned) [Example 28-195, 1-[(1S,2S,4R or 1R,2R,4S)-2-cyano-4-{[(1R)-1-cyclopropyl-2,2,2-trifluoroethyl]amino}cyclo-hexyl]-3-{[4-(trifluoromethyl)phenyl]amino}-1H-pyrazole-4-carboxamide]
14 | 0.4 nM | 18 nM | CC(=O)c1ccc(Nc2nn([C@H]3CC[C@@H](N4CCC4)C[C@@H]3C#N)cc2C(N)=O)cc1 (single isomer, unassigned) [Example 28-83, 3-[(4-acetylphenyl)amino]-1-[(1S,2S,4R or 1R,2R,4S)-4-azetidin-1-yl-2-cyanocyclohexyl]-1H-pyrazole-4-carboxamide]
15 | 0.45 nM | 5 nM | COC1CN(C2CC[C@H](n3cc(C(N)=O)c(Nc4ccc(S(=O)(=O)C(F)(F)F)cc4)n3)[C@@H](C#N)C2)C1 (single isomer, unassigned) [Example 28-147, 1-[(1S,2S or 1R,2R)-2-cyano-4-(3-methoxyazetidin-1-yl)cyclohexyl]-3-({4-[(trifluoro-methyl)sulfonyl]phenyl}amino)-1H-pyrazole-4-carboxamide]
16 | 12 nM | 254 nM | CN(C)[C@@H]1CC[C@H](n2cc(C(N)=O)c(Nc3ccnc(F)c3)n2)[C@@H](C#N)C1 (single isomer, unassigned) [Example 28-127, 1-[(1S,2S,4R or 1R,2R,4S)-2-cyano-4-(dimethylamino)cyclohexyl]-3-[(2-fluoropyridin-4-yl)amino]-1H-pyrazole-4-carboxamide]
17 | 21 nM | 665 nM | N#C[C@@H]1C[C@@H](NC2CC3(CCCC3)C2)CC[C@H]1n1cc(C(N)=O)c(Nc2ccc(C(F)(F)F)cc2)n1 (single isomer, unassigned) [Example 30-5, 1-[(1R,2R,4S or 1S,2S,4R)-2-cyano-4-(spiro[3.4]oct-2-ylamino)cyclohexyl]-3-{[4-(trifluoromethyl)phenyl]amino}-1H-pyrazole-4-carboxamide]
18 | 2 nM | 67 nM | N#C[C@H]1C[C@@H](N[C@H](C2CC2)C(F)(F)F)CC[C@@H]1n1cc(C(N)=O)c(Nc2ccc(C(F)(F)F)cc2)n1 (single isomer, unassigned) [Example 28-192, 1-[(1S,2S,4S or 1R,2R,4R)-2-cyano-4-{[(1S)-1-cyclopropyl-2,2,2-trifluoroethyl]amino}cyclo-hexyl]-3-{[4-(trifluoromethyl)phenyl]amino}-1H-pyrazole-4-carboxamide]
19 | 2 nM | 20 nM | COCCN(C)[C@H]1CCC(n2cc(C(N)=O)c(Nc3ccc(Cl)cc3)n2)[C@@H](C#N)C1 (single isomer, unassigned) [Example 28-239, 3-[(4-chlorophenyl)amino]-1-{(1S,2S,4S or 1R,2R,4R)-2-cyano-4-[(2-methoxy-ethyl)(methyl)amino]cyclo-hexyl}-1H-pyrazole-4-carboxamide]
20 | 2 nM | 110 nM | N#C[C@H]1C[C@H](N2CCC2)CC[C@@H]1n1cc(C(N)=O)c(Nc2ccc(Cl)cc2)n1 (single isomer, unassigned) [Example 28-109, 1-[(1S,2S,4R or 1R,2R,4S)-4-azetidin-1-yl-2-cyanocyclohexyl]-3-[(4-chlorophenyl)amino]-1H-pyrazole-4-carboxamide]
21 | 2 nM | 49 nM | CS(=O)(=O)C1CN(C(=O)[C@H]2CC[C@H](n3cc(C(N)=O)c(Nc4ccc(Cl)cc4)n3)[C@@H](C#N)C2)C1 (single isomer, unassigned) [Example 35-26, 3-[(4-chlorophenyl)amino]-1-[(1S,2S,4S or 1R,2R,4R)-2-cyano-4-{[3-(methylsulfonyl)azetidin-1-yl]carbonyl}cyclohexyl]-1H-pyrazole-4-carboxamide]
22 | 0.7 nM | 3 nM | CC(C)(c1ccc(Nc2nn([C@H]3CC[C@H](O)C[C@@H]3C#N)cc2C(N)=O)cc1)C(O)C(F)(F)F (single isomer, unassigned) [Example 33-16, 1-[(1S,2S,4S or 1R,2R,4R)-2-cyano-4-hydroxycyclohexyl]-3-{[4-(3,3,3-trifluoro-(2R or 2S)-hydroxy-1,1-dimethylpropyl)phenyl]amino}-1H-pyrazole-4-carboxamide]
23 | 10 nM | 111 nM | N#C[C@@H]1C[C@H](C(=O)N2CC3(COC3)C2)CC[C@H]1n1cc(C(N)=O)c(Nc2ccc(Cl)cc2)n1 (single isomer, unassigned) [Example 35-36, 3-[(4-chlorophenyl)amino]-1-[(1R,2R,4R or 1S,2S,4S)-2-cyano-4-(2-oxa-6-azaspiro[3.3]hept-6-ylcarbonyl)cyclohexyl]-1H-pyrazole-4-carboxamide]
24 | 6 nM | 240 nM | CN(C1CCC1)[C@H]1CC[C@@H](n2cc(C(N)=O)c(Nc3ccc(C(F)(F)F)cc3)n2)[C@H](C#N)C1 (single isomer, unassigned) [Example 30-8, l-{(1R,2R,4S or 1S,2S,4R)-2-cyano-4-[cyclo-butyl(methyl)amino]cyclohexyl}-3-{[4-(trifluoro-methyl)phenyl]amino}-1H-pyrazole-4-carboxamide]
25 | 5 nM | 35 nM | CC1(O)CN(C(=O)[C@@H]2CC[C@@H](n3cc(C(N)=O)c(Nc4ccc(Cl)cc4)n3)[C@H](C#N)C2)C1 (single isomer, unassigned) [Example 35-27, 3-[(4-chlorophenyl)amino]-1-{(1R,2R,4R or 1S,2S,4S)-2-cyano-4 [(3-hydroxy-3-methylazetidin-1-yl)carbonyl]cyclohexyl}-1H-pyrazole-4-carboxamide]
